On the set-up of data set [1]: method as in PMID 31894985. To be noted: between 2,2‐difluorobutanol and 2,2‐difluoropentanol; cited from earlier work.
Data set [2] can be described thus: octanol‐water partition coefficient (logP) by 19F NMR‐based protocol. The data set is classed as physicochemical. To be noted: for logP: measured octanol‐water partition coefficient, 19F NMR‐based protocol; for increase in lipophilicity on addition of a methyl group: methylated compound vs its nonmethylated analogue (46a vs 46b; 47a vs 47b). An excerpt:
The effect of the added bridge‐methyl group on physicochemical properties was investigated.
Figure 2 Comparison of measured octanol‐water partition coefficients between phenyl, tolyl, BCP, and 2‐MeBCP.

We go through five compounds from PMC13411385, “Methyl on the Bridge: 2‐Methyl Propellane as Precursor for 1,3‐Substituted 2‐Methylated Bicyclo[1.1.1]Pentanes” (Chemistry (Weinheim an Der Bergstrasse, Germany), 2025).

`CCCC(F)(F)CO` [2,2‐difluoropentanol]: the ΔlogP in data set [1] was 0.58 logP units.

Turning to `CC1C2CC1(C(F)(F)CO)C2` (stereo not shown) [46a, 2,2‐difluoro‐2‐(2‐methylbicyclo[1.1.1]pentan‐1‐yl)ethan‐1‐ol], in data set [2], the logP – broadly, a log measure of how a compound divides between an organic and an aqueous phase – was determined as 2.11; the “increase in lipophilicity on addition of a methyl group” value is listed as 0.54 logP units.

`OCC(F)(F)C12CC(C1)C2` [46b, 2‐(bicyclo[1.1.1]pentan‐1‐yl)‐2,2‐difluoroethan‐1‐ol] registered a logP in data set [2] of 1.57.

Consider `Cc1ccccc1C(F)(F)CO` [47a, 2,2‐difluoro‐2‐(o‐tolyl)ethan‐1‐ol], for which, in data set [2], the logP was 2.03 and the “increase in lipophilicity on addition of a methyl group” value was found to be 0.46 logP units.

`OCC(F)(F)c1ccccc1` [47b, 2,2‐difluoro‐2‐phenylethan‐1‐ol] showed a logP in data set [2] of 1.57.
